The subject of assay [1] is MLL-AF9-overexpressing AML-like cells (MA9 cells). The assay is described as follows: Differentiation-inducing activity in MLL-AF9-overexpressing AML-like cells (flow cytometry of Gr-1 and cKit). It counts as cell-based, mouse. Conditions: 7 days, 5 or 20 nM (Ex. 25, 27), 150 or 300 nM (Ex. 26), 50 or 100 nM (Ex. 22), compared with the control group (DMSO); for rate of the myeloid cell differentiation antigen Gr-1-expressing cells in living cells: FIG. 10; for rate of the cKit-expressing cells in living cells: FIG. 11. How it is done: The human MLL-AF9 fusion gene was introduced into cKit-positive mononuclear cells isolated from the myeloid of C57BL6 mouse, by retrovirus infection. MLL-AF9-overexpressing AML-like cells (MA9 cells) that acquired abnormal growth ability were established by liquid-culturing the cells after virus infection for a long period of time. Serum-free medium (GlutaMax, P/S, Stem Pro-34 medium containing 10 ng/ml mIL-3, 50 ng/mL mSCF and 10 ng/mL human Oncostatin M) was used as a culture medium.
(2 μL/well) (day 0). After culturing for 7 days (day 7), the cells were collected, and blocked with 5% FBS/PBS containing 10% Mouse BD Fc Block (BD) for 10 minutes at room temperature, and then any of various antibodies (Gr-1-FITC or CD117 (cKit)-APC: Biolegend) was added thereto at a final concentration of 0.4 μg/sample, and the mixture was reacted on ice for 30 minutes. Then, dead cell staining dye DAPI (0.2 mg/mL) was added thereto at so as to be 1 μL/sample, and the reaction was carried out on ice for additional 2 minutes under shading. Then, the expression level of each surface antigen of the cells was measured by NovoCyte flow cytometer (LMS). The obtained data were analyzed by FlowJo software (Becton Dickinson), and the rate of each surface antigen-expressing cells in the living cells excluding dead cells was graphed.
On the technique in general: Flow cytometry measures light scatter and fluorescence of single cells or particles in a stream.

The subject of another assay is MV-4-11 cells. Kind of assay: Cell growth inhibitory activity, MV-4-11 cells (CellTiter-Glo, 384-well). It counts as cell-based. Conditions: Homo sapiens. (In general: In ATP-based viability assays light output follows the ATP content of the culture.)
The test system of the next assay is MOLM-13 cells. Kind of assay: cells. Conditions: Homo sapiens. Type of assay: cell-based.
In assay [2] the target is T1, menin (Flag tagged) and biotinylated MLL1 peptide (1-46aa) (Homo sapiens, UniProt O00255).
T1 sequence (O00255 1-610): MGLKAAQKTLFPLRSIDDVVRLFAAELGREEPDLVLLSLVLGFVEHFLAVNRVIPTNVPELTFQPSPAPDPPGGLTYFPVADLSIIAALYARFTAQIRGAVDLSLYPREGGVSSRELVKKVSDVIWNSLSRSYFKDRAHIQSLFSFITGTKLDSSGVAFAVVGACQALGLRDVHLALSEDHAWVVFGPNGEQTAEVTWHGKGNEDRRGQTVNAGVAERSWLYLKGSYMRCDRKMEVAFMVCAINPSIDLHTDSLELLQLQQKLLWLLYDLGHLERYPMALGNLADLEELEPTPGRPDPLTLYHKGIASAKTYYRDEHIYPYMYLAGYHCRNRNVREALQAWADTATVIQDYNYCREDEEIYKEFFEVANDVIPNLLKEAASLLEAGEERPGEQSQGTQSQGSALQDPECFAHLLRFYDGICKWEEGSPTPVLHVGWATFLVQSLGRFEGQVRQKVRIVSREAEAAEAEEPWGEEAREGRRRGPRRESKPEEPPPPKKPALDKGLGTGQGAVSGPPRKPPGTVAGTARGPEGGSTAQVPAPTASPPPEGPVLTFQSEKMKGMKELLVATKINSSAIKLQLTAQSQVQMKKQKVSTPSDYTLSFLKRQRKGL
Kind of assay: biochemical.
Procedure: Then, the fluorescence signal by AlphaLISA (registered trademark, PerkinElmer Co., Ltd.) was measured using a plate reader (PerkinElmer Co., Ltd., EnVisionXcite).

The subject of another assay is K562 cells. The assay is described as follows: Cell growth inhibitory activity, K562 cells (CellTiter-Glo, 384-well). Type of assay: cell-based. Conditions: Homo sapiens.

Where a name gives a salt, the structure may show the parent alone. Read-outs that look alike come from different tables or passages of the source.

Procedure for K562 cells: (§1) Each cell was purchased from American Type Culture Collection (ATCC). […] The prepared drug-containing plate was stored at −30° C. until use, and thawed before use.
(§2) The suspension of each cells was prepared with 10% FBS RPMI1640 culture medium so as to be 1000 cells/mL (K562) or 10000 cells/mL (MV-4-11, MOLM-13), and seeded on the drug-containing plate (40 μL/well) (day 0). The cells were cultured for additional 3 or 7 days. ATP measurement reagent (CellTiter-Glo (registered trademark, Promega Corporation) 2.0 Assay, model number G9242, Promega Corporation) was added to each well at 10 μL/well, on the day of the drug addition (day 0) and 3 days (day 3) or 7 days (day 7) after the drug addition. After affixing a black sticker on the bottom surface, the mixture was stirred using a microplate mixing deaeration machine (model name, Weltornado FK-62, Sakaki Dengyo Co., Ltd.) (stirring conditions, revolution 9, rotation 7, time 12).
(§3) The cell growth of the drug-added group from day 0 to day 3 or day 7 was calculated as T/C %, when the cell growth of the drug-free group was considered as 100%.
Procedure for MOLM-13 cells: as §1, §2, §3
Procedure for MV-4-11 cells: as §1, §2, §3

In the case of `COc1cc(-c2ccc(CN[C@H]3C[C@@H](O)[C@@H](N(C)c4ncnc5sc(CC(F)(F)F)cc45)C3)cc2)cnc1C#N` [Example 22, 5-[4-({[(1R,3R,4S)-3-hydroxy-4-{methyl[6-(2,2,2-trifluoroethyl)thieno[2,3-d]pyrimidin-4-yl]amino}cyclopentyl]amino}methyl)phenyl]-3-methoxypyridine-2-carbonitrile Hydrochloride], in assay [1], the “rate of the myeloid cell differentiation antigen Gr-1-expressing cells in living cells” value was “increased the rate of Gr-1-positive cells” and the “rate of the cKit-expressing cells in living cells” value (from here on “rate of the cKit-expressing cells”) was “reduced the rate of cKit-positive cells”.

As to `COc1cc(-c2ccc(CN[C@H]3C[C@@H](O)[C@@H](N(C)c4ncnc5sc(CC(F)(F)F)cc45)C3)cc2)nnc1OC` [Example 25, (1R,2S,4R)-4-({[4-(5,6-dimethoxypyridazin-3-yl)phenyl]methyl}amino)-2-{methyl[6-(2,2,2-trifluoroethyl)thieno[2,3-d]pyrimidin-4-yl]amino}cyclopentan-1-ol Hydrochloride], in assay [1], the “rate of the myeloid cell differentiation antigen Gr-1-expressing cells in living cells” value was “increased the rate of Gr-1-positive cells” and the “rate of the cKit-expressing cells” value is given as “reduced the rate of cKit-positive cells”.

As for `COc1nc(N(C)[C@H]2C[C@@H](NCc3ccc(-c4cc(OC)c(OC)nn4)cc3)C[C@H]2O)c2cc(CC(F)(F)F)sc2n1` [Example 27, (1R,2S,4R)-4-({[4-(5,6-dimethoxypyridazin-3-yl)phenyl]methyl}amino)-2-{[2-methoxy-6-(2,2,2-trifluoroethyl)thieno[2,3-d]pyrimidin-4-yl](methyl)amino}cyclopentan-1-ol Hydrochloride], in assay [1], the “rate of the myeloid cell differentiation antigen Gr-1-expressing cells in living cells” value is reported as “increased the rate of Gr-1-positive cells” and the “rate of the cKit-expressing cells” value is “reduced the rate of cKit-positive cells”.

For orientation: GI50 means the concentration at which growth is held to half of that of the control. Broadly, the IC50 is the concentration at which inhibition is half-maximal. A low value points to greater potency. Turning to `FC(F)(F)Cc1cc2c(N[C@@H]3CCC[C@H](NCc4ccc(NC5CCCCC5)cc4)C3)ncnc2s1` [Example 44, (1S,3R)-N^1-{[4-(cyclohexylamino)phenyl]methyl}-N^3-[6-(2,2,2-trifluoroethyl)thieno[2,3-d]pyrimidin-4-yl]cyclohexane-1,3-diamine hydrochloride], the GI50 with MV-4-11 cells (72 h, MV4;11, Day 3, read-out: GI50 (μM) Day 3 MV4) was 1.89 µM; with MV-4-11 cells (168 h, MV4;11, Day 7, read-out: GI50 (μM) Day 7 MV4), 1.53 µM; in the assay with MOLM-13 cells (MOLM-13, 72 h, read-out: GI50 (μM) Day 3 MOLM-13), 2.73 µM; in the assay with MOLM-13 cells (MOLM-13, 168 h, read-out: GI50 (μM) Day 7 MOLM-13), 2.93 µM; in the assay on K562 cells (72 h, K562, Day 3, read-out: GI50 (μM) Day 3 K562) it was 2.75 µM; in the assay on K562 cells (168 h, K562, Day 7, read-out: GI50 (μM) Day 7 K562) it was 1.91 µM. This molecule also showed a half-inhibitory concentration (IC50) in assay [2] of 335 nM.

Values taken from patent publication US12528822B2, “Cycloalkane-1,3-diamine derivative” (Daiichi Sankyo Company, Limited, priority 2018, dated 2026).
